Columns and labels:
[1] = test system: Cav-1; experiment: Western blot of tumor tissues, Cav-1; assay type: in vivo, mice; details: high dose dLGG (25 mg/kg), Dox5, Dox5+dLGG5
Description: (§1) The therapeutic effects of dLGG or dLGG-enriched CR-API fractions from C. rabens against TNBC were evaluated using an orthotopic tumor model. Briefly, mice were subcutaneously injected with 4T1 (murine TNBC) cells (5×10^6 cells per 100 μl PBS and 50 μl matrigel per mouse) into the fourth mammary fat pad under isoflurane anaesthesia. Tumor growth and body weight are monitored daily. After tumors grow to an approximate size of 150 mm^3 at day 7 post implantation, test mice are randomized into different groups (8 mice per group) and subjected to a three-week compound treatment scheme (FIG. 2). […] Dosage and frequency of doxorubicin treatment is based on maximum tolerable dose determined from in house toxicity experiments within the concentration range commonly used in animal studies (Bao L, Haque A, Jackson K, et al. (2011) Increased Expression of P-Glycoprotein Is Associated with Doxorubicin Chemoresistance in the Metastatic 4T1 Breast Cancer Model. The American Journal of Pathology. 2011; 178 (2):838-852). Effects of drug/compound/extracts are evaluated thrice a week by monitoring tumor size and body weight. Euthanasia by cervical dislocation are performed at day 30 post tumor implantation. […]

[2] = test system: COX-2; experiment: IHC of COX-2 in liver and lung tissues; assay type: in vivo, mice; details: day 30, dLGG 5 and 25, CR-API 200 and 400 mg/kg daily o.p., Dox 5 mg/kg every 3 days i.v., Dox5+dLGG5
Description: as §1

[3] = test system: 4T1 (murine TNBC) orthotopic tumor; experiment: 4T1 orthotopic breast cancer model: tumor growth and survival; assay type: in vivo, mice; details: for tumor volume compared with the tumor control: Dox 5 mg/kg every 3 days i.v. (P<0.0001), Dox5+dLGG5 (P=0.0015), dLGG 25 mg/kg daily o.p. (P=0.0015); for reduced tumor volumes compared with the tumor control group: endpoint day 30
Description: Female BALB/cByJNar1 mice (4-week-old) were supplied from National Laboratory Animal Center, Taipei, Taiwan and given a standard laboratory diet and distilled water ad libitum and kept on a 12-h light/dark cycle at 22±2° C. This study was conducted according to the institutional guidelines and approved by the Institutional Animal Care and Utilization Committee (IACUC) of Academia Sinica, Taiwan.
(§2) The therapeutic effects of dLGG or dLGG-enriched CR-API fractions from C. rabens against TNBC were evaluated using an orthotopic tumor model. Briefly, mice were subcutaneously injected with 4T1 (murine TNBC) cells (5×10^6 cells per 100 μl PBS and 50 μl matrigel per mouse) into the fourth mammary fat pad under isoflurane anaesthesia. Tumor growth and body weight are monitored daily. After tumors grow to an approximate size of 150 mm^3 at day 7 post implantation, test mice are randomized into different groups (8 mice per group) and subjected to a three-week compound treatment scheme (FIG. 2). […] Dosage and frequency of doxorubicin treatment is based on maximum tolerable dose determined from in house toxicity experiments within the concentration range commonly used in animal studies (Bao L, Haque A, Jackson K, et al. (2011) Increased Expression of P-Glycoprotein Is Associated with Doxorubicin Chemoresistance in the Metastatic 4T1 Breast Cancer Model. The American Journal of Pathology. 2011; 178 (2):838-852). Effects of drug/compound/extracts are evaluated thrice a week by monitoring tumor size and body weight. Euthanasia by cervical dislocation are performed at day 30 post tumor implantation. Tumors, organ tissues (lungs, liver, kidneys, spleen) and serum were immediately collected and allocated either for western blotting (immediately flash frozen using N2 and stored at −80° C.) or for paraffin fixation (immediately soaked in 10% formalin solution for at least one week). Paraffin-embedded tissues were stored at room temperature.

[4] = test system: TNBC metastatic tumor nodules in liver; experiment: Distal metastasis to the liver (H&E, Ki-67 IHC); assay type: in vivo, mice; details: day 30; all dose groups (dLGG5, dLGG25, CR-API200, CR-API400, Dox5, Dox5+dLGG5) vs tumor control
Description: as §1

[5] = test system: FAK; experiment: Western blot of tumor tissues, FAK phosphorylation; assay type: in vivo, mice; details: high dose dLGG (25 mg/kg), high dose CR-API (400 mg/kg), Dox5, Dox5+dLGG5
Description: as §1

[6] = test system: TNBC metastatic tumor nodules in lung; experiment: Distal metastasis to the lungs (H&E, Ki-67 IHC); assay type: in vivo, mice; details: for tumor metastasis nodules in the lung tissues: day 30, all dose groups (dLGG5, dLGG25, CR-API200, CR-API400, Dox5, Dox5+dLGG5) vs tumor control
Description: as §2
(§3) Tumor and organ tissues were fixed in 10% buffered formalin and embedded in paraffin. Paraffin-embedded samples were sectioned (6 μm) and underwent hemotoxylin and eosin (H&E) or immunohistochemical (IHC) staining. Paraffin-embedded tissue sections were heat immobilized and deparaffinized using xylene and rehydrated in a graded series of ethanol with a final wash in distilled water. For antigen retrieval, citrate retrieval buffer and Decloaking Chamber (Biocare Medical) were used. Images were captured using AxioVision software (Carl Zeiss MicroImaging, Inc.).

[7] = Body weight of tumor-implanted mice; assay type: in vivo
Description: as §1

[8] = test system: cleaved caspase-3; experiment: IHC of cleaved caspase-3 in tumor tissues; assay type: in vivo, mice; details: for caspase-3 expression compared with the low dose treatments and the Dox5+dLGG5 combination: day 30, Dox 5 mg/kg i.v., CR-API 400 mg/kg, dLGG 25 mg/kg daily o.p.; for cleaved caspase-3 expression in tumor tissues compared with the vehicle control: day 30, all treatment groups
Description: as §2, §3

[9] = test system: Src (p-Src^419); experiment: Western blot of tumor tissues, Src activation; assay type: in vivo, mice; details: all dLGG and CR-API treatments, Dox5+dLGG5, Dox5
Description: as §1

[10] = test system: Rac1; experiment: Western blot of tumor tissues, Rac1; assay type: in vivo, mice; details: high dose dLGG (25 mg/kg), Dox5, Dox5+dLGG5
Description: as §1

[11] = test system: MDA-MB-231 (ER−, PR− and Her2− TNBC cells); experiment: MTT cell viability assay, MDA-MB-231; assay type: cell-based; details: human derived TNBC cells, 24 hours
Description: (§4) Immortalized normal human mammary epithelial cells (MCF10A) and breast cancer cell lines including HER2+ (SKBR3), ER+ (MCF7), triple negative (MDA-MB-231), and murine TNBC cell line 4T1 were obtained from the ATCC (USA). Cells were expanded and frozen at low passage after the receipt of the original stocks. Cells were thawed and used within 15 passages.
(§5) Cells (3×10^3 cells/well) were seeded in 96-well plates overnight and treated for 24 hours. Cell growth was determined by MTT-based colorimetric assay. Viability of the cells treated with vehicle-only (0.5% DMSO) was defined as 100% viability. Cell survival after compound treatment was calculated using the following formula: viable cell number (%)=[OD570 (treated cells)/OD570 (vehicle control)]×100.

[12] = test system: COX-2; experiment: Western blot of tumor tissues, COX-2; assay type: in vivo, mice; details: all dLGG and CR-API groups, Dox5+dLGG5 compared with Dox5 alone
Description: as §1

[13] = biological target: Ki67; experiment: IHC of Ki67 in tumor tissues; assay type: in vivo, mice; details: day 30, dLGG and CR-API regardless of dose, Dox5, Dox5+dLGG5, vs tumor control
Description: as §1

[14] = test system: MCF10A (normal mammary epithelial cells); experiment: MTT cell viability assay, MCF10A; assay type: cell-based, human; details: 24 h treatment
Description: as §4, §5

[15] = test system: 4T1 TNBC cells; experiment: MTT cell viability assay, 4T1; assay type: cell-based; details: Mus musculus, murine derived TNBC cells 4T1, 24 hours
Description: as §4, §5

[16] = test system: CYP2C19; experiment: Western blot of tumor tissues, CYP2C19; assay type: in vivo, mice; details: all dLGG and CR-API groups, Dox5+dLGG5 compared with Dox5 alone
Description: as §1

[17] = test system: MCF7 (ER+ breast cancer cells); experiment: MTT cell viability assay, MCF7; assay type: cell-based; details: Homo sapiens; MCF7, 24 hours, tested concentration range 5-100 μM
Description: as §4, §5

[18] = test system: SKBR3 (Her2+ breast cancer cells); experiment: MTT cell viability assay, SKBR3; assay type: cell-based; details: Homo sapiens, SK-BR-3; SKBR3, 24 hours, tested concentration range 5-100 μM
Description: as §4, §5

[19] = dLGG 25 mg/kg, CR-API 400 mg/kg daily o.p., Dox 5 mg/kg every 3 days i.v., Dox5+dLGG5

SMILES	Cav-1 expression level in tumor tissues [1]	COX-2 expression in liver and lung tissues [2]	tumor volume compared with the tumor control ([3]; day 30)	tumor metastasis nodules in the liver tissues [4]	phosphorylation of FAK in tumor tissues [5]	metastatic tumor nodules in lung (H&E) [6, 19]	tumor metastasis nodules in the lung tissues [6]	caspase-3 expression compared with the low dose treatments and the Dox5+dLGG5 combination [8]	cleaved caspase-3 expression in tumor tissues compared with the vehicle control [8]	activation of Src (p-Src^419) in tumor tissues compared with the tumor control [9]	Rac1 expression level in tumor tissues [10]	also measured
COc1cccc2c1C(=O)c1c(O)c3c(c(O)c1C2=O)C[C@@](O)(C(=O)CO)C[C@@H]3O[C@H]1C[C@H](N)[C@H](O)[C@H](C)O1 [Dox, doxorubicin, reference compound]	decreased significantly	further induce COX-2 expression	significant tumor volume reduction	less compared with the tumor control group	significantly inhibited	not detectable	less compared with the tumor control group	higher caspase-3 expression	increased expression of cleaved caspase-3	much less or no effect at all	decreased significantly	reduction in tumor weight ([3]; Dox5: 5 mg/kg every 3 days i.v., day 30, P<0.05): 60%; loss of weight ([7]; Dox5: 5 mg/kg every 3 days i.v., day 30): 10 % of starting body weights
CC/C=C\C/C=C\C/C=C\CCCCCCCC(=O)OC[C@H](CO[C@@H]1O[C@H](CO)[C@H](O)[C@H](O)[C@H]1O)OC(=O)CCCCCCC/C=C\C/C=C\C/C=C\CC [dLGG, 1,2-di-O-α-linolenoyl-3-O-β-galactopyranosyl-sn-glycerol]	decreased significantly	decreased in a dose-dependent manner	significant tumor volume reduction	less compared with the tumor control group	significantly inhibited	not detectable	less compared with the tumor control group	higher caspase-3 expression	increased expression of cleaved caspase-3	significantly inhibited	decreased significantly	IC50 [11]: 55 µM; survival ([3]; dLGG5: 5 mg/kg daily o.p., day 30): 100%; reduced tumor volumes compared with the tumor control group ([3]; dLGG5: 5 mg/kg daily o.p., P<0.05): 18%; survival ([3]; dLGG25: 25 mg/kg daily o.p., day 30): 100%; reduced tumor volumes compared with the tumor control group ([3]; dLGG25: 25 mg/kg daily o.p., P<0.05): 47%; COX-2 expression level in tumor tissues [12]: dose dependent effect on attenuating the expression levels; metastatic tumor nodules in lung (H&E) ([6]; low dose: dLGG 5 mg/kg, CR-API 200 mg/kg daily o.p.): visible; Ki-67 overexpression in tumor tissues [13]: attenuated; cell survival [14]: no significant change in cell survival; weight loss ([7]; dLGG 5 and 25 mg/kg, CR-API 200 and 400 mg/kg daily o.p., given alone): No significant weight loss; IC50 [15]: 55 µM; CYP2C19 expression level in tumor tissues [16]: dose dependent effect on attenuating the expression levels; IC50 [17]: > 100 µM; IC50 [18]: > 100 µM
